Measured values published in ChEMBL document CHEMBL1153613, “Synthesis and reactivity of novel gamma-phosphate modified ATP analogues” (Bioorg Med Chem Lett, 2009).
Calls of active or inactive are those of the source. The calls are words filed in the database; no cut-off is given here.

The molecules below were run against Cyclin-dependent kinase 2 (Homo sapiens) (UniProt P24941) (assay: Effect on wild type recombinant CDK2/cyclin E1 assessed as p27kip1 phosphorylation after 1 hr by immunoblot analysis).

| SMILES | Activity |
| --- | --- |
| [N-]=[N+]=NCCCCCCNP(=O)(O)OP(=O)(O)OP(=O)(O)OC[C@H]1O[C@@H](n2cnc3c(N)ncnc32)[C@H](O)[C@@H]1O | Active |
| C=CCNP(=O)(O)OP(=O)(O)OP(=O)(O)OC[C@H]1O[C@@H](n2cnc3c(N)ncnc32)[C@H](O)[C@@H]1O | Active |
| C#CCCNP(=O)(O)OP(=O)(O)OP(=O)(O)OC[C@H]1O[C@@H](n2cnc3c(N)ncnc32)[C@H](O)[C@@H]1O | Active |
| [N-]=[N+]=NCCOCCOCCOCCNP(=O)(O)OP(=O)(O)OP(=O)(O)OC[C@H]1O[C@@H](n2cnc3c(N)ncnc32)[C@H](O)[C@@H]1O | Active |
| [N-]=[N+]=NCCOP(=O)(O)OP(=O)(O)OP(=O)(O)OC[C@H]1O[C@@H](n2cnc3c(N)ncnc32)[C@H](O)[C@@H]1O | Active |
| [N-]=[N+]=Nc1ccc(NP(=O)(O)OP(=O)(O)OP(=O)(O)OC[C@H]2O[C@@H](n3cnc4c(N)ncnc43)[C@H](O)[C@@H]2O)cc1 | Active |
| C#CCCCNP(=O)(O)OP(=O)(O)OP(=O)(O)OC[C@H]1O[C@@H](n2cnc3c(N)ncnc32)[C@H](O)[C@@H]1O | Active |
| C#CCCCOP(=O)(O)OP(=O)(O)OP(=O)(O)OC[C@H]1O[C@@H](n2cnc3c(N)ncnc32)[C@H](O)[C@@H]1O | Active |
| C#CCNP(=O)(O)OP(=O)(O)OP(=O)(O)OC[C@H]1O[C@@H](n2cnc3c(N)ncnc32)[C@H](O)[C@@H]1O | Active |
